This is an account of results in patent US11384099B2, “Pyrazolopyridinone compounds” (Janssen Pharmaceutica NV, priority 2017, dated 2022).

The subject of experiment [1] is NIH/3T3 cells transfected with control vector (MOCK). Put plainly: NIH/3T3 mock cell proliferation assay (CTG, counter assay). It counts as cell-based. The settings on record: Mus musculus, NIH3T3; 72-hr incubation, CellTiter Glo; counter assay for general toxicity. As for the experimental part:
NIH/3T3 Mock Cell Proliferation Assay
In day 1, 90 μL of cell suspension (NIH/3T3 cells transfected with the same control vector as in the above two proliferation assays) (total 30,000 cells per well in growth medium (DMEM containing 1% Glutamax, 10% FBS and 1% Pen/Strep)) was seeded in a 96-well plate and then incubated overnight at 37° C. and 5% CO2. In day 2, 10 μL of growth medium containing 10-fold stock solution of testing compound was added into cell cultures (9 dose points with 3× serial dilution, starting with 30 μM, 0.3% DMSO final). After 72-hr incubation at 37° C. and 5% CO2, in day 5 a volume of 50 μL CellTiter Glo (CTG) reagent was added into cell-containing 96-well plate and the plate was incubated at room temperature for 10 minutes before RLUs (relative light unit) were measured on a microplate reader with luminescence detection module. The RLU value was normalized to survival % and concentration-response curve was plotted using Prism to calculate IC50 (M), pIC50 (−log IC50) and HillSlope value.

The target in experiment [2] is T1, human FGFR3 wild type enzyme (cytoplasmic domain) (Homo sapiens, UniProt P22607).
T1 construct: human FGFR3 wild type enzyme (cytoplasmic domain, from Cama Biosciences); purchased Carna Biosciences
T1 sequence (P22607 397-806 limits assumed): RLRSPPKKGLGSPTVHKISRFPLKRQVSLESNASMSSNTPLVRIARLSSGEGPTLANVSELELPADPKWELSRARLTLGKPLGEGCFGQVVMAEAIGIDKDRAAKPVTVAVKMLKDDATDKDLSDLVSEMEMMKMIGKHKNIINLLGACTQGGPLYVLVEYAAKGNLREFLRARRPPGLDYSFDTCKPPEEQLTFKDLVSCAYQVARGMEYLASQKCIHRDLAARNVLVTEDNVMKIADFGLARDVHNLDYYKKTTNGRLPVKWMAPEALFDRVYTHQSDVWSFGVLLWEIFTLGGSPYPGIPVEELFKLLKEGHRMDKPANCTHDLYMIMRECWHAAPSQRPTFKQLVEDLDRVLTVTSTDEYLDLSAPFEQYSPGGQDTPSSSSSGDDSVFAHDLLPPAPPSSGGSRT
Put plainly: FGFR3 wild type mobility shift assay (enzymatic assay, Caliper). It counts as biochemical. The settings on record: 75 μM ATP, 50 minutes at 30° C. On the procedure:
FGFR3 Wild Type Mobility Shift Assay (Enzymatic Assay)
In a final reaction volume of 25 μL, 0.04 ng/μL human FGFR3 wild type enzyme (cytoplasmic domain, from Cama Biosciences) was incubated with 75 μM ATP, 1 μM FL-peptide 30 substrate and 250 nL of testing compound (1% DMSO final) in assay buffer (100 mM HEPES pH 7.4, 10 mM MgCl2, 0.003% Brij35, 1 mM DTT). After incubation for 50 minutes at 30° C. the reaction was stopped with 10 μL of 0.5M EDTA pH 8.0, and then L of reaction mixture was transferred to reading plate and measured on Caliper EZ reader II.

For experiment [3], the target named is T2, human FGFR3 V555M enzyme (cytoplasmic domain carrying V555M mutation) (Homo sapiens, UniProt P22607, V555M).
T2 construct: cytoplasmic domain carrying V555M mutation, from Carna Biosciences; purchased Carna Biosciences
T2 sequence (P22607 397-806 V555M limits assumed): as the sequence (P22607 397-806 limits assumed) above, with V159M counted along it
Put plainly: FGFR3 V555M mobility shift assay (enzymatic assay, Caliper). It counts as biochemical. The settings on record: 30 μM ATP, 45 minutes at 30° C. As for the experimental part:
FGFR3 V555M Mobility Shift Assay (Enzymatic Assay)
In a final reaction volume of 25 μL, 0.04 ng/μL human FGFR3 V555M enzyme (cytoplasmic domain carrying V555M mutation, from Carna Biosciences) was incubated with 30 μM ATP, 1 μM FL-peptide 30 substrate and 250 nL of testing compound (1% DMSO final) in assay buffer (100 mM HEPES pH 7.4, 10 mM MgCl2, 0.003% Brij35, 1 mM DTT). After incubation for 45 minutes at 30° C. the reaction was stopped with 10 μL of 0.5M EDTA pH 8.0, and then L of reaction mixture was transferred to reading plate and measured on Caliper EZ reader II.

SMILES strings stand for the structures.

Broadly, the IC50 is the midpoint of a concentration-inhibition curve. On to `CCn1cc2[nH]c(=O)c(-c3nc4cc(OC)c(OC)cc4[nH]3)c(N[C@@H](C)c3cocn3)c2n1` (single isomer, unassigned) [Compound 5A, (S*)-6-(5,6-Dimethoxy-H-benzo[d]imidazol-2-yl)-2-ethyl-7-((1-(oxazol-4-yl)ethyl)-amino)-2H-pyrazolo[4,3-b]pyridin-5 (4H)-one], for which the midpoint of inhibition in experiment [1], the IC50, lay at 380 nM. Still for that read-out and setting: then `CC(C)[C@H](Nc1c(-c2nc3ccc(C(N)=O)cc3[nH]2)c(=O)[nH]c2cn(C)nc12)c1ncccn1` (single isomer, unassigned) [Compound 9, (S*)-2-(2-methyl-7-((2-methyl-1-(pyrimidin-2-yl)propyl)amino)-5-oxo-4,5-dihydro-2H-pyrazolo[4,3-b]pyridin-6-yl)-1H-benzo[d]imidazole-6-carboxamide], with 2700 nM; and `CC(C)[C@H](Nc1c(-c2nc3ccc(C(=O)N(C)C)cc3[nH]2)c(=O)[nH]c2cn(C)nc12)c1ncccn1` (single isomer, unassigned) [Compound 10, (S*)—N,N-dimethyl-2-(2-methyl-7-((2-methyl-1-(pyrimidin-2-yl)propyl)amino)-5-oxo-4,5-dihydro-2H-pyrazolo[4,3-b]pyridin-6-yl)-1H-benzo[d]imidazole-6-carboxamide], with 1370 nM; and `CC(C)[C@H](Nc1c(-c2nc3cnc(N(C)C)cc3[nH]2)c(=O)[nH]c2cn(C)nc12)c1ncccn1` (single isomer, unassigned) [Compound 11, (S*)-6-(6-(dimethylamino)-1H-imidazo[4,5-c]pyridin-2-yl)-2-methyl-7-((2-methyl-1-(pyrimidin-2-yl)propyl)amino)-2H-pyrazolo[4,3-b]pyridin-5 (4H)-one], with 1840 nM.

In the case of `COCC(Nc1c(-c2nc3ccc(OC)cc3[nH]2)c(=O)[nH]c2cn(C)nc12)c1ncccn1` (single isomer, unassigned) [Compound 13, (R*)-7-((2-methoxy-1-(pyrimidin-2-yl)ethyl)amino)-6-(6-methoxy-1H-benzo[d]imidazol-2-yl)-2-methyl-2H-pyrazolo[4,3-b]pyridin-5 (4H)-one], the results for the IC50 in experiment [2] and in experiment [3] were 1830 nM and 375 nM, respectively. For `CCC(Nc1c(-c2nc3cnc(N(C)C)cc3[nH]2)c(=O)[nH]c2cn(C)nc12)c1ncccn1` (single isomer, unassigned) [Compound 14, (S*)-6-(6-(dimethylamino)-1H-imidazo[4,5-c]pyridin-2-yl)-2-methyl-7-((1-(pyrimidin-2-yl)propyl)amino)-2H-pyrazolo[4,3-b]pyridin-5 (4H)-one], in that order: 71.9 nM and 11.8 nM.

`COc1ccc2[nH]c(-c3c(NC(c4ncccn4)C(C)C)c4nn(C)cc4[nH]c3=O)nc2c1` (single isomer, unassigned) [Compound 15, (S*)-6-(5-Methoxy-1H-benzo[d]imidazol-2-yl)-2-methyl-7-((2-methyl-1-(pyrimidin-2-yl)-propyl)amino)-2H-pyrazolo[4,3-b]pyridin-5 (4H)-one]: the IC50 in experiment [1] turned out to be 1340 nM.

For the molecule `COCC(Nc1c(-c2nc3cnc(OC)cc3[nH]2)c(=O)[nH]c2cn(C)nc12)c1ncccn1` (single isomer, unassigned) [Compound 19, (S*)-7-((2-methoxy-1-(pyrimidin-2-yl)ethyl)amino)-6-(6-methoxy-1H-imidazo[4,5-c]-pyridin-2-yl)-2-methyl-2H-pyrazolo[4,3-b]pyridin-5 (4H)-one], the values for the IC50 in experiment [2] and in experiment [3] were 1240 nM and 243 nM, respectively. Turning to `COCC(Nc1c(-c2nc3cnc(OC)cc3[nH]2)c(=O)[nH]c2cn(C)nc12)c1ncccn1` (single isomer, unassigned) [Compound 20, (R*)-7-((2-methoxy-1-(pyrimidin-2-yl)ethyl)amino)-6-(6-methoxy-1H-imidazo[4,5-c]-pyridin-2-yl)-2-methyl-2H-pyrazolo[4,3-b]pyridin-5 (4H)-one], the half-maximal inhibitory concentration (IC50) was determined as 22.4 nM in experiment [2] and 4.67 nM in experiment [3]. With `CC(C)C(Nc1c(-c2nc3cnccc3[nH]2)c(=O)[nH]c2cn(C)nc12)c1ncccn1` (single isomer, unassigned) [Compound 24, (S*)-6-(1H-imidazo[4,5-c]pyridin-2-yl)-2-methyl-7-((2-methyl-1-(pyrimidin-2-yl)propyl)-amino)-2H-pyrazolo[4,3-b]pyridin-5 (4H)-one], the half-inhibitory concentration (IC50) in experiment [1] came out at 3010 nM.

Consider `COCC(Nc1c(-c2nc3cc(OC)c(OC)cc3[nH]2)c(=O)[nH]c2cn(C)nc12)c1ncccn1` (single isomer, unassigned) [Compound 26, (R*)-6-(5,6-dimethoxy-1H-benzo[d]imidazol-2-yl)-7-((2-methoxy-1-(pyrimidin-2-yl)-ethyl)amino)-2-methyl-2H-pyrazolo[4,3-b]pyridin-5 (4H)-one], for which the 50% inhibitory concentration (IC50) in experiment [2] was found to be 790 nM; in experiment [3], 218 nM.

On to `CCn1cc2[nH]c(=O)c(-c3nc4ccc(OC)cc4[nH]3)c(N[C@@H](C)c3cocn3)c2n1` (single isomer, unassigned) [Compound 33, (S*)-2-ethyl-6-(6-methoxy-1H-benzo[d]imidazol-2-yl)-7-((1-(oxazol-4-yl)ethyl)amino)-2H-pyrazolo[4,3-b]125yridine-5 (4H)-one], for which the results for the half-inhibitory concentration (IC50) in experiment [2] and in experiment [3] were 23.7 nM and 4.16 nM, respectively. For `COCCOc1cc2[nH]c(-c3c(NC(c4ncccn4)C(C)C)c4nn(C)cc4[nH]c3=O)nc2cc1OC` (single isomer, unassigned) [Compound 35, (R*)-6-(5-methoxy-6-(2-methoxyethoxy)-1H-benzo[d]imidazol-2-yl)-2-methyl-7-((2-methyl-1-(pyrimidin-2-yl)propyl)amino)-2H-pyrazolo[4,3-b]pyridin-5 (4H)-one], in that order: 298 nM and 80.5 nM. On the same counts, the results for `COc1cnc2nc(-c3c(NC(c4ncccn4)C(C)C)c4nn(C)cc4[nH]c3=O)[nH]c2c1` (single isomer, unassigned) [Compound 39, (R*)-6-(6-methoxy-1H-imidazo[4,5-b]pyridin-2-yl)-2-methyl-7-((2-methyl-1-(pyrimidin-2-yl)propyl)amino)-2,4-dihydro-5H-pyrazolo[4,3-b]pyridin-5-one] are 263 nM and 48.6 nM. For `CCC(Nc1c(-c2nc3cc(OC)c(OC)cc3[nH]2)c(=O)[nH]c2cn(C)nc12)c1ncccn1` (single isomer, unassigned) [Compound 43, (R*)-6-(5,6-dimethoxy-1H-benzo[d]imidazol-2-yl)-2-methyl-7-((1-(pyrimidin-2-yl)-propyl)amino)-2H-pyrazolo[4,3-b]pyridin-5 (4H)-one], in that order: 138 nM and 43.2 nM. Take `COc1cc2nc(-c3c(NC(c4ncccn4)C4CC4)c4nn(C)cc4[nH]c3=O)[nH]c2cc1OC` (single isomer, unassigned) [Compound 47, (R*)-7-((cyclopropyl(pyrimidin-2-yl)methyl)amino)-6-(5,6-dimethoxy-1H-benzo[d]-imidazol-2-yl)-2-methyl-2H-pyrazolo[4,3-b]pyridin-5 (4H)-one]: the IC50 in experiment [2] came out at 99.6 nM; in experiment [3] it was 23.8 nM. Turning to `CCC(Nc1c(-c2nc3ccc(OCCOC)cc3[nH]2)c(=O)[nH]c2cn(C)nc12)c1ncccn1` (single isomer, unassigned) [Compound 49, (R*)-6-(6-(2-methoxyethoxy)-1H-benzo[d]imidazol-2-yl)-2-methyl-7-((1-(pyrimidin-2-yl)propyl)amino)-2H-pyrazolo[4,3-b]pyridin-5 (4H)-one], the IC50 in experiment [2] came out at 150 nM; in experiment [3], 59.5 nM. For `CC[C@@H](Nc1c(-c2nc3cnc(N(C)C)cc3[nH]2)c(=O)[nH]c2cn(C)nc12)c1ncccn1` [Compound 21, (R)-6-(6-(dimethylamino)-1H-imidazo[4,5-c]pyridin-2-yl)-2-methyl-7-((1-(pyrimidin-2-yl)propyl)amino)-2H-pyrazolo[4,3-b]pyridin-5 (4H)-one], in that order: 1240 nM and 347 nM. On the same counts, the results for `CCn1cc2[nH]c(=O)c(-c3nc4cc(OC)c(OC)cc4[nH]3)c(N[C@@H](C)c3ncccn3)c2n1` [Compound 37, (S)-6-(5,6-dimethoxy-1H-benzo[d]imidazol-2-yl)-2-ethyl-7-((1-(pyrimidin-2-yl)ethyl)-amino)-2H-pyrazolo[4,3-b]pyridin-5 (4H)-one] are 1.83 nM and 0.673 nM.
